Source: US20250122219A1 (priority 2023, published 2025)

Experiment: Cytotoxicity assay in MT-4 cells
Assay type: cell-based
Settings: human; uninfected MT-4 cells, 5 days incubation, Cell Titer Glo; read-out: MT4 CC50
Protocol: Compounds were tested in a high-throughput 384-well assay format for their ability to inhibit the replication of HIV-1 (IIIB) in MT-4 cells. Compounds were serially diluted (1.3) in DMSO on 384-well polypropylene plates and further diluted 200-fold into complete RPMI media (10% FBS, 1% P/S) using the Biotek Micro Flow and Labcyte ECHO acoustic dispenser. Each plate contained up to 8 test compounds, with negative (No Drug Control) and 5 μM AZT positive controls. MT-4 cells were pre-infected with 10 μL of either RPMI (mock-infected) or a fresh 1:250 dilution of HIV-1 IIIB concentrated virus stock. Infected and uninfected MT-4 cells were further diluted in complete RPMI media and added to each plate using a Micro Flow dispenser. After 5 days incubation in a humidified and temperature controlled incubator (37° C.), Cell Titer Glo (Promega) was added to the assay plates and chemiluminescence read using an Envision plate-reader.
Assays were performed as above except uninfected MT-4 cells were added to each well containing test compound. In addition, […] puromycin was added to the last column of each assay plate to assess a base level of cytotoxicity.

With `COC1=NO[C@@]2(CC[C@H](C)N3C[C@H]2n2cc(C(=O)NCc4ccc(F)cc4F)c(=O)c(OC(=O)C(C)C)c2C3=O)C1` [Example 48, (3′S,5S,7′R)-10′-((2,4-difluorobenzyl)carbamoyl)-3-methoxy-3′-methyl-1′,11′-dioxo-1′,4′,5′,11′-tetrahydro-3′H,4H,7′H-spiro[isoxazole-5,6′-[2,7]methanopyrido[1,2-a][1,4]diazonin]-12′-yl isobutyrate] as the compound, how does the CC50 at 5 days read?
The CC50 at 5 days was 22.4 µM.

For `CC1=NO[C@@]2(CC[C@H](C)N3C[C@H]2n2cc(C(=O)NCc4ccc(F)cc4F)c(=O)c(OC(=O)C(C)C)c2C3=O)C1` [Example 49, (3′S,5S,7′R)-10′-((2,4-difluorobenzyl)carbamoyl)-3,3′-dimethyl-1′,11′-dioxo-1′,4′,5′,11′-tetrahydro-3′H,4H,7′H-spiro[isoxazole-5,6′-[2,7]methanopyrido[1,2-a][1,4]diazonin]-12′-yl isobutyrate], which CC50 at 5 days is on record?
Its CC50 at 5 days is 15.1 µM.

With `CCC(C)C(=O)Oc1c2n(cc(C(=O)NCc3ccc(F)cc3F)c1=O)[C@@H]1CN(C2=O)[C@@H](C)CC[C@]12CC(OC)=NO2` (stereo partly drawn) [Example 50, (3′S,5S,7′R)-10′-((2,4-difluorobenzyl)carbamoyl)-3-methoxy-3′-methyl-1′,11′-dioxo-1′,4′,5′,11′-tetrahydro-3′H,4H,7′H-spiro[isoxazole-5,6′-[2,7]methanopyrido[1,2-a][1,4]diazonin]-12′-yl 2-methylbutanoate] as the compound, how does the CC50 at 5 days read?
Its CC50 at 5 days is 21.7 µM.

Which CC50 at 5 days does the source give for `CCC(C)C(=O)Oc1c2n(cc(C(=O)NCc3ccc(F)cc3F)c1=O)[C@@H]1CN(C2=O)[C@@H](C)CC[C@]12CC(C)=NO2` (stereo partly drawn) [Example 51, (3′S,5S,7′R)-10′-((2,4-difluorobenzyl)carbamoyl)-3,3′-dimethyl-1′,11′-dioxo-1′,4′,5′,11′-tetrahydro-3′H,4H,7′H-spiro[isoxazole-5,6′-[2,7]methanopyrido[1,2-a][1,4]diazonin]-12′-yl 2-methylbutanoate] here?
Its CC50 at 5 days is 20 µM.

For `CC1=NO[C@@]2(CC[C@H](C)N3C[C@H]2n2cc(C(=O)NCc4ccc(F)cc4F)c(=O)c(OC(=O)CCCC(=O)O)c2C3=O)C1` [Example 72, 5-(((3′S,5S,7′R)-10′-((2,4-difluorobenzyl)carbamoyl)-3,3′-dimethyl-1′,11′-dioxo-1′,4′,5′,11′-tetrahydro-3′H,4H,7′H-spiro[isoxazole-5,6′-[2,7]methanopyrido[1,2-a][1,4]diazonin]-12′-yl)oxy)-5-oxopentanoic acid], which CC50 at 5 days is on record?
Its CC50 at 5 days is 10.8 µM.

For `COC1=NO[C@@]2(CC[C@H](C)N3C[C@H]2n2cc(C(=O)NCc4ccc(F)cc4F)c(=O)c(OC(=O)CCCCCC(=O)O)c2C3=O)C1` [Example 74, 7-(((3′S,5S,7′R)-10′-((2,4-difluorobenzyl)carbamoyl)-3-methoxy-3′-methyl-1′,11′-dioxo-1′,4′,5′,11′-tetrahydro-3′H,4H,7′H-spiro[isoxazole-5,6′-[2,7]methanopyrido[1,2-a][1,4]diazonin]-12′-yl)oxy)-7-oxoheptanoic acid], which CC50 at 5 days is on record?
Its CC50 at 5 days is 26.3 µM.

With `COC(=O)N[C@@H](C)C(=O)Oc1c2n(cc(C(=O)NCc3ccc(F)cc3F)c1=O)[C@@H]1CN(C2=O)[C@@H](C)CC[C@]12CC(OC)=NO2` [Example 78] as the compound, how does the CC50 at 5 days read?
The CC50 at 5 days was 16.2 µM.

With `COC(=O)N[C@@H](C)C(=O)Oc1c2n(cc(C(=O)NCc3ccc(F)cc3F)c1=O)[C@@H]1CN(C2=O)[C@@H](C)CC[C@]12CC(C)=NO2` [Example 79] as the compound, how does the CC50 at 5 days read?
The CC50 at 5 days was 19.5 µM.

With `COC1=NO[C@@]2(CC[C@H](C)N3C[C@H]2n2cc(C(=O)NCc4ccc(F)cc4F)c(=O)c(OCOC(=O)C(C)C)c2C3=O)C1` [Example 108, (((3′S,5S,7′R)-10′-((2,4-difluorobenzyl)carbamoyl)-3-methoxy-3′-methyl-1′,11′-dioxo-1′,4′,5′,11′-tetrahydro-3′H,4H,7′H-spiro[isoxazole-5,6′-[2,7]methanopyrido[1,2-a][1,4]diazonin]-12′-yl)oxy)methyl isobutyrate] as the compound, how does the CC50 at 5 days read?
Its CC50 at 5 days is 21.7 µM.

For `CC1=NO[C@@]2(CC[C@H](C)N3C[C@H]2n2cc(C(=O)NCc4ccc(F)cc4F)c(=O)c(OCOC(=O)C(C)C)c2C3=O)C1` [Example 109, (((3′S,5S,7′R)-10′-((2,4-difluorobenzyl)carbamoyl)-3,3′-dimethyl-1′,11′-dioxo-1′,4′,5′,11′-tetrahydro-3′H,4H,7′H-spiro[isoxazole-5,6′-[2,7]methanopyrido[1,2-a][1,4]diazonin]-12′-yl)oxy)methyl isobutyrate], which CC50 at 5 days is on record?
Its CC50 at 5 days is 15.5 µM.

Which CC50 at 5 days does the source give for `COC(=O)Oc1c2n(cc(C(=O)NCc3ccc(F)cc3F)c1=O)[C@@H]1CN(C2=O)[C@@H](C)CC[C@]12CC(OC)=NO2` [Example 122, (03'S,5S,7′R)-10′-((2,4-difluorobenzyl)carbamoyl)-3-methoxy-3′-methyl-1′,11′-dioxo-1′,4′,5′,11′-tetrahydro-3′H,4H,7′H-spiro[isoxazole-5,6′-[2,7]methanopyrido[1,2-a][1,4]diazonin]-12′-yl methyl carbonate] here?
The CC50 at 5 days was 19.8 µM.

Which CC50 at 5 days does the source give for `CCCOC(=O)Oc1c2n(cc(C(=O)NCc3ccc(F)cc3F)c1=O)[C@@H]1CN(C2=O)[C@@H](C)CC[C@]12CC(C)=NO2` [Example 125, (3′S,5S,7′R)-10′-((2,4-difluorobenzyl)carbamoyl)-3,3′-dimethyl-1′,11′-dioxo-1′,4′,5′,11′-tetrahydro-3′H,4H,7′H-spiro[isoxazole-5,6′-[2,7]methanopyrido[1,2-a][1,4]diazonin]-12′-yl propyl carbonate] here?
Its CC50 at 5 days is 18.5 µM.

For `CCCOC(=O)Oc1c2n(cc(C(=O)NCc3ccc(F)cc3F)c1=O)[C@@H]1CN(C2=O)[C@@H](C)CC[C@]12CC(OC)=NO2` [Example 126, (3′S,5S,7′R)-10′-((2,4-difluorobenzyl)carbamoyl)-3-methoxy-3′-methyl-1′,11′-dioxo-1′,4′,5′,11′-tetrahydro-3′H,4H,7′H-spiro[isoxazole-5,6′-[2,7]methanopyrido[1,2-a][1,4]diazonin]-12′-yl propyl carbonate], which CC50 at 5 days is on record?
Its CC50 at 5 days is 21.9 µM.

For `CC1=NO[C@@]2(CC[C@H](C)N3C[C@H]2n2cc(C(=O)NCc4ccc(F)cc4F)c(=O)c(OC(=O)OCCCCCCC(C)C)c2C3=O)C1` [Example 158, (3′S,5S,7′R)-10′-((2,4-difluorobenzyl)carbamoyl)-3,3′-dimethyl-1′,11′-dioxo-1′,4′,5′,11′-tetrahydro-3′H,4H,7′H-spiro[isoxazole-5,6′-[2,7]methanopyrido[1,2-a][1,4]diazonin]-12′-yl (7-methyloctyl) carbonate], which CC50 at 5 days is on record?
The CC50 at 5 days was 16.8 µM.

For `COC1=NO[C@@]2(CC[C@H](C)N3C[C@H]2n2cc(C(=O)NCc4ccc(F)cc4F)c(=O)c(OC(=O)OCCCCCCC(C)C)c2C3=O)C1` [Example 159, (3′S,5S,7′R)-10′-((2,4-difluorobenzyl)carbamoyl)-3-methoxy-3′-methyl-1′,11′-dioxo-1′,4′,5′,11′-tetrahydro-3′H,4H,7′H-spiro[isoxazole-5,6′-[2,7]methanopyrido[1,2-a][1,4]diazonin]-12′-yl (7-methyloctyl) carbonate], which CC50 at 5 days is on record?
Its CC50 at 5 days is 35.9 µM.

Which CC50 at 5 days does the source give for `CCCCCCCCCCCCCCOC(=O)OCOc1c2n(cc(C(=O)NCc3ccc(F)cc3F)c1=O)[C@@H]1CN(C2=O)[C@@H](C)CC[C@]12CC(C)=NO2` [Example 192, (((3′S,5S,7′R)-10′-((2,4-difluorobenzyl)carbamoyl)-3,3′-dimethyl-1′,11′-dioxo-1′,4′,5′,11′-tetrahydro-3′H,4H,7′H-spiro[isoxazole-5,6′-[2,7]methanopyrido[1,2-a][1,4]diazonin]-12′-yl)oxy)methyl tetradecyl carbonate] here?
Its CC50 at 5 days is at least 50 µM.
